Measurements published in paper PMC10374969, “SVCT2/SLC23A2 is a sodium-dependent urate transporter: functional properties and practical application” (The Journal of Biological Chemistry, 2023).

Tests used:
Format in all cases: cell-based
[1] = biological target: T1, human SVCT2 (SVCT2/SLC23A2) (Homo sapiens, UniProt Q9UGH3); assay: inhibition of [[…]-14C]-ascorbate uptake into transfected HEK293 cells
T1 construct: full-length wild type, 650 aa, C-terminal EGFP tag (pEGFP-N1), transiently expressed in HEK293 cells
T1 sequence (Q9UGH3 whole entry): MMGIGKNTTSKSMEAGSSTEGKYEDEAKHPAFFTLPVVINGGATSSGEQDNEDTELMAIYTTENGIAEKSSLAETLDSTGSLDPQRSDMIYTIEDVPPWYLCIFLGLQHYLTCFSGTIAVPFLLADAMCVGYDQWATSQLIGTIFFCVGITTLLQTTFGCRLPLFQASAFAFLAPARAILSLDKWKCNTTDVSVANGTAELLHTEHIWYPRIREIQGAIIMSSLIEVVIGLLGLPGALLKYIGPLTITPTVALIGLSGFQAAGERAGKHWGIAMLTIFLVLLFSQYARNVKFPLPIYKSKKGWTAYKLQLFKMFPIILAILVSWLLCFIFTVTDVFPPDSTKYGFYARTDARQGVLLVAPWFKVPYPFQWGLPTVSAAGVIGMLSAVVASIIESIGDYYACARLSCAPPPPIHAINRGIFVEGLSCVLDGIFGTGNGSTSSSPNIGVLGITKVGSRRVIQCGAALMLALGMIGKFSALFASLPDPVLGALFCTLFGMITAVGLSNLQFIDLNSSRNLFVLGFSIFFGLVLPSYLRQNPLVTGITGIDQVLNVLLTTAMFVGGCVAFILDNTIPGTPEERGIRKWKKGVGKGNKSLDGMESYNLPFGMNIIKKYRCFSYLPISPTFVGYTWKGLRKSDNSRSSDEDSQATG

[2] = biological target: T1, human SVCT2 (SVCT2/SLC23A2); assay: inhibition of [[…]-14C]-urate uptake into transfected HEK293 cells, mock subtracted
[3] = biological target: T2, mouse Svct2 (Svct2/Slc23a2) (Mus musculus, UniProt Q9EPR4); assay: as above
T2 construct: full-length, 648 aa, C-terminal EGFP tag (pEGFP-N1), transiently expressed in HEK293 cells
T2 sequence (Q9EPR4 whole entry): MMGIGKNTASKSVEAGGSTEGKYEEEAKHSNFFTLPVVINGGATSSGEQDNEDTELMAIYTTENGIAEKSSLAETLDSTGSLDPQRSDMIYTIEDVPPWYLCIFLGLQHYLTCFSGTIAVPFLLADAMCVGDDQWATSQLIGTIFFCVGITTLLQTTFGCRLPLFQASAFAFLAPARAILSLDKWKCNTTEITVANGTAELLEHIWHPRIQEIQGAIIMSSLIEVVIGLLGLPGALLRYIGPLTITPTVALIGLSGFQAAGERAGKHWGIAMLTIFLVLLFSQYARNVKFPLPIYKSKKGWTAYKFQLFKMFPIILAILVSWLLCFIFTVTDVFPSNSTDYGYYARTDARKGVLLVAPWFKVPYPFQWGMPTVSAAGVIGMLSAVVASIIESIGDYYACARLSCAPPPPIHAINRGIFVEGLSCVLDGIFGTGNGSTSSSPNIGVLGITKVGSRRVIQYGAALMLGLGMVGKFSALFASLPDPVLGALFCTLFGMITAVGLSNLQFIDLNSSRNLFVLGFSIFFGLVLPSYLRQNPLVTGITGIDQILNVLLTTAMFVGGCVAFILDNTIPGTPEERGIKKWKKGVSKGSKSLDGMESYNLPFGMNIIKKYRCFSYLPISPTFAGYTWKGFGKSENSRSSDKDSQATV

Row | inhibition at 500 µM [1] [%] | IC50 [2] [µM] | IC50 [3] [µM] | SMILES
1 | ~20 | – | – | O=c1[nH]c(=O)c2[nH]c(=O)[nH]c2[nH]1 [urate]
2 | – | 36.6 | 30.3 | O=C1O[C@H]([C@@H](O)CO)C(O)=C1O [ascorbate]
